Laboratory results: US7557110B2, “Pyrazolo[1,5-A] pyrimidine derivatives” (Teijin Pharma Limited, priority 2003, dated 2009)

Columns and labels:
CDK-2 = CDK-2 (Homo sapiens, UniProt P24941); experiment: CDK-2 enzyme activity inhibition (33P-ATP filter plate kinase assay); format: biochemical; settings: read-out: CDK-2 inhibition IC50
Source text: [General Procedure for Measurement of CDK-2 Enzyme Activity Inhibition]

MAPKAP-K2 = MAPKAP-K2 (Homo sapiens, UniProt P49137); experiment: MAPKAP-K2 enzyme activity inhibition (33P-ATP filter plate kinase assay); format: biochemical; settings: MAPKAP-K2 inhibitory activity; assays conducted at typically 1-100 μM; also: key: +: active; ++: more active; +++: very active
Protocol: [General Procedure for Measurement of MAPKAP-K2 Enzyme Activity Inhibition]
After conducting the reaction for 30 minutes at room temperature, an equivalent volume of a 200 mM phosphoric acid solution was added to suspend the reaction, and 90 μL of the reaction product was adsorbed onto a MultiScreen PH plate (Millipore) and rinsed with a 100 mM phosphoric acid solution. After drying the plate, 30 μL of MicroScint-O (Packard BioScience) was added, and the cpm was measured with a scintillation counter to determine the inhibiting activity. Substrate peptide is […]

Chain of MAPKAP-K2 (P49137 whole entry): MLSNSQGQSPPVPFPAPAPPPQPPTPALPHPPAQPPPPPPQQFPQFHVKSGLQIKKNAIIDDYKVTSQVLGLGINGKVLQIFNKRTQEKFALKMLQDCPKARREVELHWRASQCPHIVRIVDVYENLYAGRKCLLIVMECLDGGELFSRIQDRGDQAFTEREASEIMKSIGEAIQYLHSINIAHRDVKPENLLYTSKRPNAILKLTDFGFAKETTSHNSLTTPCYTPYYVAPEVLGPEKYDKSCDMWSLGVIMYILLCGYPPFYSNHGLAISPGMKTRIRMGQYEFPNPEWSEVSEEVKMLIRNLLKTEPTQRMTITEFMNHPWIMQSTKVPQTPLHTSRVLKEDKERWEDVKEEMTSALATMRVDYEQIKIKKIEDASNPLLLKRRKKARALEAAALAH

IC50 (CDK-2) [µM]	activity (efficacy against MAPKAP-K2) (MAPKAP-K2)	SMILES
< 100	+++	Cc1c(N[C@H]2CC[C@H](N)CC2)nc2ccnn2c1Nc1ccc(OCc2ccc(Cl)cc2)cc1 [Compound 211]
< 100	+++	Cc1c(N[C@H]2CC[C@H](N)CC2)nc2ccnn2c1Nc1ccc(OCc2ccccc2Cl)cc1 [Compound 213]
< 100	++	Cc1c(N[C@H]2CC[C@H](N)CC2)nc2ccnn2c1Nc1ccc(OCCC2CCCCC2)cc1 [Compound 215]
< 100	+++	Cc1c(N[C@H]2CC[C@H](N)CC2)nc2ccnn2c1Nc1ccc(OC2CCCC2)cc1 [Compound 216]
< 100	++	Cc1c(N[C@H]2CC[C@H](N)CC2)nc2ccnn2c1Nc1ccc(OC2CCN(C)CC2)cc1 [Compound 217]
< 100	+++	Cc1c(N[C@H]2CC[C@H](N)CC2)nc2ccnn2c1Nc1ccc(OC2CCOCC2)cc1 [Compound 219]
< 100	+++	Cc1c(N[C@H]2CC[C@H](N)CC2)nc2ccnn2c1Nc1ccc(OCCN2CCOCC2)cc1 [Compound 221]
< 100	+++	Cc1c(N[C@H]2CC[C@H](N)CC2)nc2ccnn2c1Nc1ccc(OCc2cccnc2)cc1 [Compound 222]
< 100	+++	Cc1c(N[C@H]2CC[C@H](N)CC2)nc2ccnn2c1Nc1ccc(OCCN2CCCCC2)cc1 [Compound 223]
< 100	+++	Cc1c(N[C@H]2CC[C@H](N)CC2)nc2ccnn2c1Nc1ccc(OCc2ccccn2)cc1 [Compound 224]
< 100	+++	Cc1c(N[C@H]2CC[C@H](N)CC2)nc2ccnn2c1Nc1ccc(OCCc2ccccn2)cc1 [Compound 225]
< 100	+++	Cc1c(NC2CCC(N)CC2)nc2ccnn2c1Nc1ccc(OCC2CCCN(C)C2)cc1 (stereo not shown) [Compound 226]
< 100	+++	Cc1c(N[C@H]2CC[C@H](N)CC2)nc2ccnn2c1Nc1ccc(OCCc2ccncc2)cc1 [Compound 228]
< 100	+++	Cc1c(NC2CCC(N)CC2)nc2ccnn2c1Nc1ccc(OC2CCNC2)cc1 (stereo not shown) [Compound 229]
< 100	++	Cc1c(NC2CCC(N)CC2)nc2ccnn2c1Nc1ccc(OCCC2CCCCN2)cc1 (stereo not shown) [Compound 231]
< 100	++	Cc1c(N[C@H]2CC[C@H](N)CC2)nc2ccnn2c1Nc1ccc(OCC2CCCCC2)cc1 [Compound 237]
< 100	++	Cc1c(N[C@H]2CC[C@H](N)CC2)nc2ccnn2c1Nc1cccc(OCc2ccccc2)c1 [Compound 243]
< 100	++	Cc1c(N[C@H]2CC[C@H](N)CC2)nc2ccnn2c1Nc1cccc(OCc2cccc(Cl)c2)c1 [Compound 247]
< 100	++	Cc1c(N[C@H]2CC[C@H](N)CC2)nc2ccnn2c1Nc1cccc(OCc2ccc(Cl)cc2)c1 [Compound 248]
< 100	+++	Cc1c(NC2CCC(N)CC2)nc2ccnn2c1Nc1ccc(OCC2CCCCN2)cc1 (stereo not shown) [Compound 251]
< 100	+++	Cc1c(NC2CCC(N)CC2)nc2ccnn2c1Nc1ccc(OCC2CCCO2)cc1 (stereo not shown) [Compound 256]

IC50 (CDK-2) [µM]	activity (efficacy against MAPKAP-K2) (MAPKAP-K2)	SMILES
< 100	++	Cc1c(N[C@H]2CC[C@H](N)CC2)nc2ccnn2c1Nc1cccc(OCc2cccnc2)c1 [Compound 274]
< 100	+++	Cc1c(N[C@H]2CC[C@H](N)CC2)nc2ccnn2c1Nc1ccc(-c2ccccc2)cc1 [Compound 284, {5-[(trans-4-aminocyclohexyl)amino]-6-methyl(pyrazolo[1,5-a]pyrimidin-7-yl)}(4-phenylphenyl)amine]
< 100	+++	COc1ccccc1-c1ccc(Nc2c(C)c(N[C@H]3CC[C@H](N)CC3)nc3ccnn23)cc1 [Compound 287]
< 100	+++	Cc1c(N[C@H]2CC[C@H](N)CC2)nc2ccnn2c1Nc1ccc(-c2cccc(N)c2)cc1 [Compound 288]
< 100	+++	Cc1c(N[C@H]2CC[C@H](N)CC2)nc2ccnn2c1Nc1ccc(-c2cc3ccccc3s2)cc1 [Compound 289]
< 100	+++	Cc1c(N[C@H]2CC[C@H](N)CC2)nc2ccnn2c1Nc1ccc(-c2cc3ccccc3o2)cc1 [Compound 290]
< 100	++	Cc1c(N[C@H]2CC[C@H](N)CC2)nc2ccnn2c1Nc1ccc(-c2csc3ccccc23)cc1 [Compound 292]
< 100	++	N[C@H]1CC[C@H](Nc2cc(NCc3cccc(Cl)c3)n3ncc(I)c3n2)CC1 [Compound 297, {5-[(trans-4-aminocyclohexyl)amino]-3-iodo(pyrazolo[1,5-a]pyrimidin-7-yl)}[(3-chlorophenyl)methyl]amine]
< 100	+++	Cc1c(N[C@H]2CC[C@H](N)CC2)nc2ccnn2c1Nc1ccc(-c2ccncc2)cc1 [Compound 299]
< 100	+++	Cc1c(N[C@H]2CC[C@H](N)CC2)nc2ccnn2c1Nc1ccc(-c2cccnc2)cc1 [Compound 300]
< 100	+++	Cc1c(N[C@H]2CC[C@H](N)CC2)nc2ccnn2c1Nc1ccc(-c2ccc(N)cc2)cc1 [Compound 301]
< 100	+++	Cc1c(N[C@H]2CC[C@H](N)CC2)nc2ccnn2c1Nc1ccc(-c2ccc(F)cc2)cc1 [Compound 303]
< 100	+++	Cc1c(N[C@H]2CC[C@H](N)CC2)nc2ccnn2c1Nc1ccc(-c2cccc(F)c2)cc1 [Compound 304]
< 100	+++	Cc1c(N[C@H]2CC[C@H](N)CC2)nc2ccnn2c1Nc1ccc(-c2ccccc2F)cc1 [Compound 305]
< 100	+++	Cc1c(N[C@H]2CC[C@H](N)CC2)nc2ccnn2c1Nc1ccc(-c2ccc(O)cc2)cc1 [Compound 306]
< 100	+++	Cc1c(N[C@H]2CC[C@H](N)CC2)nc2ccnn2c1Nc1ccc(-c2cccc(O)c2)cc1 [Compound 307]
< 100	+++	Cc1c(N[C@H]2CC[C@H](N)CC2)nc2ccnn2c1Nc1ccc(-c2ccoc2)cc1 [Compound 309]
< 100	++	Cc1c(N[C@H]2CC[C@H](N)CC2)nc2ccnn2c1Nc1ccc(-c2ccsc2C=O)cc1 [Compound 310]
< 100	+++	Cc1c(N[C@H]2CC[C@H](N)CC2)nc2ccnn2c1Nc1ccc(-c2cncnc2)cc1 [Compound 311]
< 100	+++	Cc1c(N[C@H]2CC[C@H](N)CC2)nc2ccnn2c1Nc1ccc(-c2ccc(Cl)cc2)cc1 [Compound 312]
